The values below come from ChEMBL document CHEMBL1154175, “A dynamic target-based pharmacophoric model mapping the CD4 binding site on HIV-1 gp120 to identify new inhibitors of gp120-CD4 protein-protein interactions” (Bioorg Med Chem Lett, 2009).

The source made the active and inactive calls. No cut-off for these calls is given here.

Series [1] has as its system Human immunodeficiency virus 1. The series can be described thus: Antiviral activity against HIV1 NL4-3 infected in human MT4 cells assessed as capsid p24antigen production at 100 times EC50 treated before infection by ELISA. The series is classed as functional, organism-based. On the technique in general: In an ELISA, binding on a coated surface is turned into a signal by an enzyme label.

Series [2] has as its system Human immunodeficiency virus 1. Nature of the series: Antiviral activity against HIV1 NL4-3 with gp120 mutation […] infected in human MT4 cells assessed as inhibition of virus-induced cytopathic effect after 5 days by MTT assay. Format: functional, organism-based. The note with it: Human immunodeficiency virus 1, NL4-3, MT4, 120 h. A general note: Protection from cytopathic effect is a common read-out in antiviral testing.

Series [3] is described as follows: Cytotoxicity against human MT4 cells after 5 days by MTT assay. The series is classed as cell-based. Background: Formazan colour is commonly taken as a measure of viable cells.
Series [4] deals with Human immunodeficiency virus 1. Nature of the series: Antiviral activity against HIV1 NL4-3 infected in human MT4 cells assessed as inhibition of virus-induced cytopathic effect after 5 days by MTT assay. Format: functional, organism-based. The note with it: Human immunodeficiency virus 1, NL4-3, MT4, 120 h.
In series [5] the test system is Human immunodeficiency virus 1. Nature of the series: Antiviral activity against HIV1 NL4-3 infected in human MT4 cells assessed as capsid p24antigen production at 100 times EC50 treated after infection by ELISA. Format: functional, organism-based.

A word on the EC50: it is the concentration at which the effect is half-maximal. A word on the CC50: it is the concentration at which the toxic effect on the cells reaches its halfway point. A low value points to harm at low concentration. For `CCOC(=O)/C(=C\c1ccc(-c2cccc([N+](=O)[O-])c2)o1)C(=O)c1ccccc1`, in series [1], the result was Active. Further, the EC50 in series [2] is greater than 64 µM; in series [4] it was 9 µM. This compound displayed a 50% cytotoxic concentration (CC50) at 120 h in series [3] greater than 64 µM. The outcome in series [5] was inactive.

In series [3], `C=CCn1c(SCc2ccc(C(=O)NCCO)cc2)nc2ccccc2c1=O` displayed a CC50 at 120 h greater than 63 µM. The EC50 in series [4] was greater than 63 µM.

Consider `COc1ccc(/C=N/c2nc3ccccc3n2Cc2ccc(Cl)cc2)cc1OC`, for which the cytotoxic concentration (CC50) at 120 h in series [3] was greater than 62 µM. The EC50 in series [4] is greater than 62 µM.

For the compound `C[C@@H]1CN(C(=O)c2ccccc2)CCN1C(=O)C(=O)c1cc2ccccc2[nH]1`, the concentration for a half-maximal effect (EC50) was greater than 2.66 µM in series [2] and 0.024 µM in series [4]. In addition, the CC50 at 120 h in series [3] was greater than 2.66 µM.

In turn, `COc1nc(N/N=C/c2ccc(-c3ccc(Cl)c([N+](=O)[O-])c3)o2)nc(N2CCOCC2)n1` gave a CC50 at 120 h in series [3] greater than 54 µM. The concentration giving a half-maximal response (EC50) in series [4] was greater than 54 µM.

`CCOC(=O)[C@H](Cc1ccc(/N=C/c2cc(Br)ccc2O)cc1)N1C(=O)c2ccccc2C1=O`: the EC50 in series [2] is greater than 48 µM; in series [4], 22 µM. Moreover, the half-maximal cytotoxic concentration (CC50) at 120 h in series [3] was greater than 48 µM.
